From PMC1082716, “Blockade of chemokine-induced signalling inhibits CCR5-dependent HIV infection in vitro without blocking gp120/CCR5 interaction” (Retrovirology, 2005)
Entries after “also recorded” stand apart in the source; their conditions may differ.

Test system: CCR5
Test: Specific binding of biotinylated gp120:V3(BaL) peptide to THP-1 cells
Details: 100 μM biotinylated gp120:V3(BaL); various concentrations of Peptide 3; 10^6 cells in 100 μl, 4°C; non-specific binding (10 mM unlabelled peptide) subtracted
Experimental: The binding of gp120 to chemokine receptors is likely to involve sequences in the V3 loop of gp120 [28, 20]. We therefore synthesised peptide sequences from the V3 loop of the M-tropic BaL strain and the T-tropic IIIb strain and analysed the binding of these biotinylated peptides to the THP-1 and Jurkat cells. Specific (competable) binding of gp120:V3(BaL) to THP-1 cells was detected at 100 μM (Fig 1a). In contrast, specific binding of gp120:V3(BaL) to Jurkat cells was not detected even at concentrations up to 500 μM (Fig 1a). […]
Figure 1 Specific binding of gp120:V3 loop peptides to THP-1 and Jurkat cells. […] Specific binding is expressed as the absorbance in the absence of unlabelled peptide minus the absorbance in the presence of competitor (b) Binding of gp120:V3(IIIb)-biotin under the same conditions as in (a). […]
Cells (either Jurkat T-cells or THP-1 cells) were grown in RPMI 1640 medium supplemented with 10% fetal calf serum, 2 mM glutamine, 20 μM β-mercaptoethanol, 100 U/ml penicillin and 100 μg/ml streptomycin and maintained between 2 × 10^5 and 1 × 10^6 cells/ml. […] The plate was spun (3,000 × g; 3 mins) and 200 μl of the coloured product was transferred to an empty 96-well ELISA plate and the absorbance at 450 nm determined.

**Q.** EICADPKQKWVQ [Peptide 3] was tested. Which “Effect on gp120 binding to CCR5 (gp120:V3(BaL) to THP-1 cells)” value did it give?
**A.** no effect; also recorded: unaffected
